Reference: US20090118135A1, “METHODS AND COMPOUNDS FOR REGULATING APOPTOSIS” (The Burnham Institute, priority 2007, published 2009)
Where “and” joins values, the source holds several entries; their conditions need not be identical. Identical values can stand only once.

Key:
GST-Bcl-2 [1] = biological target: T1, GST-Bcl-2 (Homo sapiens, UniProt P10415); assay: biochemical
GST-Bcl-B [2] = biological target: T2, GST-Bcl-B (Homo sapiens, UniProt Q9HD36); assay: Bcl-B/FITC-TR3-r8 fluorescence polarization competition (displacement) assay, HTS and dose-response; conditions: for Bcl-B H Coefficient: Hill coefficient of Bcl-B dose-response curve
T2 sequence (Q9HD36 1-182 limits assumed): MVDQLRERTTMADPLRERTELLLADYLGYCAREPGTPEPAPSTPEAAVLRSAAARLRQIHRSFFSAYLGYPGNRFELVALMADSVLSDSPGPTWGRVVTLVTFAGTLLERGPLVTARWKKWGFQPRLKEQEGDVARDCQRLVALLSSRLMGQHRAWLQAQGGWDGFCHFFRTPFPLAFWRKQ

GST-Bcl-B [3] = biological target: T2, GST-Bcl-B; assay: biochemical
GST-Hsp70 = GST-Hsp70 (Homo sapiens, UniProt P0DMV8); assay: FITC-ATP/GST-Hsp70 fluorescence polarization counter-screen; type: binding; conditions: HSP/FITC-ATP counter screen
Sequence of GST-Hsp70 (P0DMV8 whole entry): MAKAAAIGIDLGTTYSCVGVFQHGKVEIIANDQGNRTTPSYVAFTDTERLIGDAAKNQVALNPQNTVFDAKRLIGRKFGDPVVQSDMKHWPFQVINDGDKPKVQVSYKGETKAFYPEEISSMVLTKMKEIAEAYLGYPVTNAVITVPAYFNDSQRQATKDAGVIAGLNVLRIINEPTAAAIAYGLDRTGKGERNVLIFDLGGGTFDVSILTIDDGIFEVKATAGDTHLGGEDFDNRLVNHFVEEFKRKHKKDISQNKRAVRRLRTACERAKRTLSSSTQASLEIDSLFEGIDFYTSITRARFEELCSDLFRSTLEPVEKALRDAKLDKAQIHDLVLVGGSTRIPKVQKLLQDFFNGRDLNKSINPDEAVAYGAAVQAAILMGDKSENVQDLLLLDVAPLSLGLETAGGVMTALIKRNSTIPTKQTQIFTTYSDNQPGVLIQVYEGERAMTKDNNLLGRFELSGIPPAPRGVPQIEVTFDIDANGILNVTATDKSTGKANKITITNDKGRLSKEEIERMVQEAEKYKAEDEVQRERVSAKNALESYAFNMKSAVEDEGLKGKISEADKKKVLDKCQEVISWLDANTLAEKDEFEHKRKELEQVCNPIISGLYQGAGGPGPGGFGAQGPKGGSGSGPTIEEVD
Protocol: Dose-response curves were then generated (fluorescent compounds were eliminated), followed by counter-screening using a biologically unrelated FPA (GST-Hsp70/FITC-ATP).
A number of assays were then performed to eliminate non-specific or irreproducible hits (FIG. 21). […] Second, compound dose-response curves were generated using the fluorescence polarization assay. […] Finally, 1D-NMR was used to test the compounds for binding to GST-Bcl-B versus GST (as a negative control) (FIG. 22).

GST-Bcl-B [4] = biological target: T2, GST-Bcl-B; assay: FITC-Bim-BH3/GST-Bcl-B fluorescence polarization displacement assay; type: binding; design: their C-terminal transmembrane domains (˜20 amino acids) were deleted to enhance protein solubility; made in house; host or cells: E. coli (BL21 Star (DE3); XL-1 Blue), pGEX-4T-1; conditions: FIG. 23D; result in words
GST-Bcl-B [5] = biological target: T2, GST-Bcl-B; assay: FITC-Puma-BH3/GST-Bcl-B fluorescence polarization displacement assay; type: binding; design: their C-terminal transmembrane domains (˜20 amino acids) were deleted to enhance protein solubility; made in house; host or cells: E. coli (BL21 Star (DE3); XL-1 Blue), pGEX-4T-1; conditions: FIG. 23C; result in words
GST = biological target: T3, GST (Schistosoma japonicum, UniProt P08515); assay: 1D 1H-NMR compound binding, GST negative control; conditions: negative control protein; result in words
T3 construct: made in house; host or cells: Escherichia coli BL21 Star (DE3), pGEX-4T-1
T3 sequence (P08515 whole entry): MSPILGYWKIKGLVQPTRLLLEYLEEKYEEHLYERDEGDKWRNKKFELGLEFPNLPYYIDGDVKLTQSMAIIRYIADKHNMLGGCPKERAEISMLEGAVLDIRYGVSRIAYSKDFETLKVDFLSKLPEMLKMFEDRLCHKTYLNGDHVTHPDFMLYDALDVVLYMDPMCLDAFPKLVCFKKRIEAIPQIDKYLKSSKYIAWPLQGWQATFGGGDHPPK
Protocol: (§1) FIGS. 22A-22F are line graphs showing a ^1H-NMR spectra confirmation of compound binding to Bcl-B. Compounds 5804000, 5954623, and 2011727 were diluted in PBS/D2O buffer to 1000 μM, then incubated with either GST (FIGS. 22A, C, E) or GST-Bcl-B (FIGS. 22B, D, F) at 0, 10 or 20 μM concentrations. FIGS. 22A-B show compound 5804000; FIGS. 22C-D show compound 5954623; and FIGS. 22E-F show the NMR spectra for the negative control compound 2011727. The most prominent peak shift for each compound is shown.
(§2) NMR experiments were performed at 25° C. on a 500 MHz Bruker Avance spectrometer (Bruker, Madison, Wis.) equipped with a 5 mm TXI probe. […] Reference solutions were then used in titration experiments with GST-Bcl-B or GST. All ^1H NMR spectra were obtained with the carrier position set to the water peak signal using WATERGATE. NMR data were processed and analyzed with MestRe Nova (MestReLab Research, Santiago de Compostela, Spain).

GST-Bcl-B [6] = biological target: T2, GST-Bcl-B; assay: 1D 1H-NMR compound binding, GST-Bcl-B; design: their C-terminal transmembrane domains (˜20 amino acids) were deleted to enhance protein solubility; made in house; host or cells: E. coli (BL21 Star (DE3); XL-1 Blue), pGEX-4T-1; conditions: result in words
Protocol: as §1, §2

GST-Bcl-2 [7] = biological target: T1, GST-Bcl-2; assay: Bcl-2/FITC-TR3 fluorescence polarization competition assay (PBS + Tween-20); conditions: Hill coefficient of Bcl-2 dose-response curve

T1 sequence (P10415 1-218 limits assumed): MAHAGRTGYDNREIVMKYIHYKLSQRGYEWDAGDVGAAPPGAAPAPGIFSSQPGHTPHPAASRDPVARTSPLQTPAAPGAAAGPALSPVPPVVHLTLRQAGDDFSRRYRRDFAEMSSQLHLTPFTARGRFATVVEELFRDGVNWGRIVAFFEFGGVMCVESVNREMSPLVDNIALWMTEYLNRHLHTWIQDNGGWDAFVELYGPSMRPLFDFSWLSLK

Structure (SMILES)	Bcl-B H Coefficient (GST-Bcl-B [2])	IC50 (GST-Bcl-B [3])	HSP70 IC50 (Hill) (GST-Hsp70)	displacement of FITC-Bim-BH3 from GST-Bcl-B (GST-Bcl-B [4])	displacement of FITC-Puma-BH3 from GST-Bcl-B (GST-Bcl-B [5])	binding to GST by 1D-NMR (GST)	EC50 (GST-Bcl-B [2]) [µM]	Bcl-2 H Coefficient (GST-Bcl-2 [7])	IC50 (GST-Bcl-2 [1]) [µM]	IC50 (GST-Bcl-B [2]; Bcl-B IC50 (g/L)) [µM]	IC50 (GST-Bcl-B [2]; Bcl-B IC50 (uM)) [µM]	binding to GST-Bcl-B by 1D-NMR (GST-Bcl-B [6])
O=S(=O)(O)c1cccc2cccc(Nc3ccccc3)c12 [Compound 5255876]	2.628								12.6	2.94	2.95	
CC1=C(C#N)c2nc(N)c(C#N)c(C)c2/C1=C/c1ccc(-c2ccc(C(=O)O)c(Cl)c2)o1 [Compound 6025233]	1.206	1.65 µM	high					3.081				
Nc1ccc(Oc2ccc(N)c(N)c2)cc1N [Compound 5152592]	1.303		High					1.428		5.37	5.37	

Second part, led by results:

Bcl-B H Coefficient (GST-Bcl-B [2])	IC50 (GST-Bcl-B [3])	HSP70 IC50 (Hill) (GST-Hsp70)	displacement of FITC-Bim-BH3 from GST-Bcl-B (GST-Bcl-B [4])	displacement of FITC-Puma-BH3 from GST-Bcl-B (GST-Bcl-B [5])	binding to GST by 1D-NMR (GST)	EC50 (GST-Bcl-B [2]) [µM]	Bcl-2 H Coefficient (GST-Bcl-2 [7])	Structure (SMILES)	IC50 (GST-Bcl-2 [1]) [µM]	IC50 (GST-Bcl-B [2]; Bcl-B IC50 (g/L)) [µM]	IC50 (GST-Bcl-B [2]; Bcl-B IC50 (uM)) [µM]	binding to GST-Bcl-B by 1D-NMR (GST-Bcl-B [6])
0.939	14.2 µM	high						Clc1ccc(C2C=C(c3ccccc3)Nc3ncnn32)cc1 (stereo not drawn) [Compound 5223675]				
1.233	15.6 µM and 16.3 µM		displaced FITC-Bim-BH3	displaced FITC-Puma-BH3	did not bind to GST	2.1		Cc1ccc(C)n1-c1ccc(Br)cc1C(=O)O [Compound 5954623]				bound to GST-Bcl-B in a concentration dependent manner
0.9279	0.942 µM	high					1.457	Cc1ccc(C)n1-c1ccc(Cl)cc1C(=O)O [Compound 5950160]				
